In the experiment the test system is Mycobacterium tuberculosis starved, CFU imaging. Briefly: M. tuberculosis CFU reduction, CFU imaging, dry powder, dose response (AID 743486).

Each structure is given as a SMILES string. The source made the active and inactive calls. How the calls were made is not given here.

With `Cn1c(NC(=O)c2ccccc2)nc2c3ncccc3ccc21`, the AC90 is > 64 µM (inactive).

For the compound `Cn1c(NC(=O)c2ccccc2)nc2c3cnccc3ccc21`, the AC90 is less than 32 µM.

As for `Cn1c(NC(=O)c2ccccc2)nc2c3nccnc3ccc21`, the AC90 was > 64 µM (inactive).

`Cn1c(NC(=O)c2ccccc2)nc2c3ccncc3ccc21`: the AC90 was less than 64 µM.

Values taken from PubChem BioAssay AID743486 (Broad Institute, 2014).
